According to PubChem BioAssay AID2060492 (Molecular Pharmacology Branch, DTP, NCI, 2025):
Blank lines part the entries; values can stand above or below the molecule they belong to.

System: 695427-040-R-J1-PDC complex spheroids, viability percent T/C
Assay: Anticancer human tumor 695427-040-R-J1-PDC patient-derived colon adenocarcinoma cell line growth inhibition [GQUAD]
Conditions: for IC50: curve of first compound; for viability, T/C: stronger effect = lower value
How it was run: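 Multi-cell-type spheroids of tumor cells with HUVEC and mesenchymal stem cells, treated with drug combinations. Concentrations descend in half-log steps from near clinical Cmax, or from 10 microM where Cmax is unknown; viability read-out.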

[1] = second compound 0.0316 µM, first compound 0.000999 µM
[2] = second compound 0.0316 µM, first compound 0.00316 µM
[3] = second compound 0.0316 µM, first compound 0.00999 µM
[4] = second compound 0.0316 µM, first compound 0.0316 µM
[5] = second compound 0.0316 µM, first compound 0.0999 µM
[6] = second compound 0.0316 µM, first compound 0.316 µM
[7] = second compound 0.1 µM, first compound 0.000999 µM
[8] = second compound 0.1 µM, first compound 0.00316 µM
[9] = second compound 0.1 µM, first compound 0.00999 µM
[10] = second compound 0.1 µM, first compound 0.0316 µM
[11] = second compound 0.1 µM, first compound 0.0999 µM
[12] = second compound 0.1 µM, first compound 0.316 µM
[13] = second compound 0.316 µM, first compound 0.000999 µM
[14] = second compound 0.316 µM, first compound 0.00316 µM
[15] = second compound 0.316 µM, first compound 0.00999 µM
[16] = second compound 0.316 µM, first compound 0.0316 µM
[17] = second compound 0.316 µM, first compound 0.0999 µM
[18] = second compound 0.316 µM, first compound 0.316 µM
[19] = second compound 1 µM, first compound 0.000999 µM
[20] = second compound 1 µM, first compound 0.00316 µM
[21] = second compound 1 µM, first compound 0.00999 µM
[22] = second compound 1 µM, first compound 0.0316 µM
[23] = second compound 1 µM, first compound 0.0999 µM
[24] = second compound 1 µM, first compound 0.316 µM
[25] = second compound 3.16 µM, first compound 0.000999 µM
[26] = second compound 3.16 µM, first compound 0.00316 µM
[27] = second compound 3.16 µM, first compound 0.00999 µM
[28] = second compound 3.16 µM, first compound 0.0316 µM
[29] = second compound 3.16 µM, first compound 0.0999 µM
[30] = second compound 3.16 µM, first compound 0.316 µM
[31] = second compound 10 µM, first compound 0.000999 µM
[32] = second compound 10 µM, first compound 0.00316 µM
[33] = second compound 10 µM, first compound 0.00999 µM
[34] = second compound 10 µM, first compound 0.0316 µM
[35] = second compound 10 µM, first compound 0.0999 µM
[36] = second compound 10 µM, first compound 0.316 µM
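Note: spheroids exposed to compounds for seven days before readout.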

IC50 (second compound 0.0316 µM): > 316 nM
IC50 (second compound 0.1 µM): > 316 nM
IC50 (second compound 0.316 µM): > 316 nM
IC50 (second compound 1 µM): > 316 nM
IC50 (second compound 3.16 µM): < 0.999 nM
IC50 (second compound 10 µM): < 0.999 nM
SMILES: CC[C@@]1(O)C(=O)OCc2c1cc1n(c2=O)Cc2cc3c(CN(C)C)c(O)ccc3nc2-1 + Cc1cnc(CNC(=O)c2c(=O)c3ccc(N4CCCN(C)CC4)nc3n3c2sc2ccccc23)cn1
viability, T/C [1]: 92.5%
viability, T/C [2]: 82.5%
viability, T/C [3]: 89.7%
viability, T/C [4]: 76%
viability, T/C [5]: 82.8%
viability, T/C [6]: 79.2%
viability, T/C [7]: 95.5%
viability, T/C [8]: 74.4%
viability, T/C [9]: 90.8%
viability, T/C [10]: 67.7%
viability, T/C [11]: 91.6%
viability, T/C [12]: 77.5%
viability, T/C [13]: 73.2%
viability, T/C [14]: 66.6%
viability, T/C [15]: 69%
viability, T/C [16]: 61.1%
viability, T/C [17]: 80.5%
viability, T/C [18]: 65.6%
viability, T/C [19]: 56.4%
viability, T/C [20]: 69.8%
viability, T/C [21]: 58.3%
viability, T/C [22]: 65.7%
viability, T/C [23]: 70.9%
viability, T/C [24]: 63.8%
viability, T/C [25]: 45.8%
viability, T/C [26]: 56.8%
viability, T/C [27]: 54.8%
viability, T/C [28]: 53.5%
viability, T/C [29]: 65.7%
viability, T/C [30]: 48.4%
viability, T/C [31]: 28.6%
viability, T/C [32]: 51.3%
viability, T/C [33]: 54%
viability, T/C [34]: 49.4%
viability, T/C [35]: 48.8%
viability, T/C [36]: 40.2%

IC50 (second compound 0.0316 µM): > 316 nM
IC50 (second compound 0.1 µM): > 316 nM
IC50 (second compound 0.316 µM): > 316 nM
IC50 (second compound 1 µM): > 316 nM
IC50 (second compound 3.16 µM): < 0.999 nM
IC50 (second compound 10 µM): < 0.999 nM
SMILES: Cc1[nH]c2ccccc2c1CCNCc1ccc(/C=C/C(=O)NO)cc1 + Cc1cnc(CNC(=O)c2c(=O)c3ccc(N4CCCN(C)CC4)nc3n3c2sc2ccccc23)cn1
viability, T/C [1]: 108%
viability, T/C [2]: 89.4%
viability, T/C [3]: 105%
viability, T/C [4]: 87.8%
viability, T/C [5]: 86.9%
viability, T/C [6]: 80.5%
viability, T/C [7]: 90.7%
viability, T/C [8]: 84%
viability, T/C [9]: 84.3%
viability, T/C [10]: 80.5%
viability, T/C [11]: 94.8%
viability, T/C [12]: 65.5%
viability, T/C [13]: 74.9%
viability, T/C [14]: 80.8%
viability, T/C [15]: 85.5%
viability, T/C [16]: 85%
viability, T/C [17]: 90.4%
viability, T/C [18]: 58.1%
viability, T/C [19]: 50.9%
viability, T/C [20]: 73.3%
viability, T/C [21]: 69.2%
viability, T/C [22]: 66.6%
viability, T/C [23]: 67.5%
viability, T/C [24]: 39%
viability, T/C [25]: 41.6%
viability, T/C [26]: 51.4%
viability, T/C [27]: 52.9%
viability, T/C [28]: 46.1%
viability, T/C [29]: 43.1%
viability, T/C [30]: 9.89%
viability, T/C [31]: 21.6%
viability, T/C [32]: 31.5%
viability, T/C [33]: 32%
viability, T/C [34]: 31.1%
viability, T/C [35]: 14.5%
viability, T/C [36]: 0.3%

IC50 (second compound 0.0316 µM): > 10000 nM
IC50 (second compound 0.1 µM): > 10000 nM
IC50 (second compound 0.316 µM): > 10000 nM
IC50 (second compound 1 µM): > 10000 nM
IC50 (second compound 3.16 µM): < 31.6 nM
IC50 (second compound 10 µM): < 31.6 nM
SMILES: Nc1ccn(C2OC(CO)C(O)C2(F)F)c(=O)n1 (stereo unspecified) + Cc1cnc(CNC(=O)c2c(=O)c3ccc(N4CCCN(C)CC4)nc3n3c2sc2ccccc23)cn1
viability, T/C [4]: 91.9%
viability, T/C (second compound 0.0316 µM, first compound 0.1 µM): 81.2%
viability, T/C [6]: 73.6%
viability, T/C (second compound 0.0316 µM, first compound 1 µM): 49.4%
viability, T/C (second compound 0.0316 µM, first compound 3.16 µM): 55.1%
viability, T/C (second compound 0.0316 µM, first compound 10 µM): 53.9%
viability, T/C [10]: 93.8%
viability, T/C (second compound 0.1 µM, first compound 0.1 µM): 72.5%
viability, T/C [12]: 65.9%
viability, T/C (second compound 0.1 µM, first compound 1 µM): 52%
viability, T/C (second compound 0.1 µM, first compound 3.16 µM): 56.4%
viability, T/C (second compound 0.1 µM, first compound 10 µM): 61.3%
viability, T/C [16]: 70%
viability, T/C (second compound 0.316 µM, first compound 0.1 µM): 66%
viability, T/C [18]: 61.7%
viability, T/C (second compound 0.316 µM, first compound 1 µM): 64.8%
viability, T/C (second compound 0.316 µM, first compound 3.16 µM): 64.2%
viability, T/C (second compound 0.316 µM, first compound 10 µM): 53.5%
viability, T/C [22]: 60.6%
viability, T/C (second compound 1 µM, first compound 0.1 µM): 55.2%
viability, T/C [24]: 54.9%
viability, T/C (second compound 1 µM, first compound 1 µM): 52.8%
viability, T/C (second compound 1 µM, first compound 3.16 µM): 56.4%
viability, T/C (second compound 1 µM, first compound 10 µM): 54.6%
viability, T/C [28]: 42.7%
viability, T/C (second compound 3.16 µM, first compound 0.1 µM): 50.9%
viability, T/C [30]: 54.3%
viability, T/C (second compound 3.16 µM, first compound 1 µM): 47.3%
viability, T/C (second compound 3.16 µM, first compound 3.16 µM): 46.4%
viability, T/C (second compound 3.16 µM, first compound 10 µM): 36%
viability, T/C [34]: 35.1%
viability, T/C (second compound 10 µM, first compound 0.1 µM): 41.7%
viability, T/C [36]: 40.1%
viability, T/C (second compound 10 µM, first compound 1 µM): 29%
viability, T/C (second compound 10 µM, first compound 3.16 µM): 36.7%
viability, T/C (second compound 10 µM, first compound 10 µM): 29.8%
